# Measured values taken from patent US10800753B2, “Tetrahydrothiophene-based GABA aminotransferase inactivators and analogs thereof for treating neurological disorders” (Northwestern University, priority 2015, dated 2020).
# pKi: −log10 of the molar value.
# How the values were obtained:
# [1] = test system: aspartate aminotransferase; conditions: off-target enzyme, prior art; cited from earlier work
# GABA-AT = conditions: cited from earlier work
# [2] = target: GABA aminotransferase (GABA-AT) (Sus scrofa (Pig), UniProt P80147); experiment: Inhibition of GABA-AT, coupled assay with SSDH (IC50 to Ki by Cheng-Prusoff); format: biochemical; conditions: competitive inhibitor of GABA-AT
# Experimental: GABA-AT was isolated and purified from pig brain by a published procedure.
# Inhibition constants were determined by monitoring GABA-AT activity in the presence of 0-50 mM concentrations of synthesized analogues using a coupled assay with the enzyme succinic semialdehyde dehydrogenase (SSDH). The assay solution consisted of 10 mM GABA, 5 mM α ketoglutarate, 1 mM NADP^+, 5 mM β-mercaptoethanol, and excess SSDH in 50 mM potassium pyrophosphate buffer, pH 8.5. Enzyme activity was determined by observing the change in absorbance at 340 nm at 25° C. IC50 values were obtained using non-linear regression in GraphPad Prism5 software. […] (Yung-Chi, C.; Prusoff, W. H. Biochem. Pharmacol. 1973, 22, 3099-3108.)
# [3] = test system: multiple-hit rat model of infantile spasms; conditions: cited from earlier work
# CYP2C9 = CYP2C9 (Homo sapiens (Human), UniProt P11712); experiment: Inhibition of microsomal cytochromes P450: CYP2C9; format: in vitro ADME; conditions: HLM, diclofenac substrate, 10 μM, 10 min at 37° C.
# Experimental: (§1) Inhibition of Microsomal Cytochromes P450. The experiments were performed by Eurofins Panlabs (Redmond, Wash. 98052, USA). CYP1A inhibition (HLM, phenacetin substrate), CYP2B6 inhibition (HLM, bupropion substrate), CYP2C8 inhibition (HLM, paclitaxel substrate), CYP2C9 inhibition (HLM, diclofenac substrate), CYP2C19 inhibition (HLM, omeprazole substrate), CYP2D6 inhibition (HLM, dextromethorphan substrate), and CYP3A inhibition (HLM, midazolam and testosterone substrates) were tested. The test concentration was 10 μM. The incubation time was 10 min at 37° C. The detection method was by HPLC-MS/MS. The experiments were duplicated, and the % inhibition of the control values was averaged (FIG. 10).
# CYP2D6 = CYP2D6 (Homo sapiens (Human), UniProt P10635); experiment: Inhibition of microsomal cytochromes P450: CYP2D6; format: in vitro ADME; conditions: HLM, dextromethorphan substrate, 10 μM, 10 min at 37° C.
# Experimental: as §1
# [4] = Metabolic stability in human liver microsomes; format: in vitro ADME; conditions: over 60 minutes, 0.1 μM, 37° C., LC-MS/MS
# Experimental: Measurement of the metabolic stability in HLM was accomplished by incubating 17 with the microsomes and monitoring its disappearance with time using LC-MS/MS. Imipramine, propranolol, terfenadine, and verapamil were run in similar condition as controls. […] Metabolic Stability in Human Liver Microsomes. The experiments were performed by Eurofins Panlabs (Redmond, Wash. 98052, USA). The test concentration of 17 was 0.1 μM. […] The detection method was by LC-MS/MS. Imipramine, propranolol, terfenadine, and verapamil were run in similar condition as controls.
# CYP2C19 = CYP2C19 (Homo sapiens (Human), UniProt P33261); experiment: Inhibition of microsomal cytochromes P450: CYP2C19; format: in vitro ADME; conditions: HLM, omeprazole substrate, 10 μM, 10 min at 37° C.
# Experimental: as §1
# CYP2C8 = CYP2C8 (Homo sapiens (Human), UniProt P10632); experiment: Inhibition of microsomal cytochromes P450: CYP2C8; format: in vitro ADME; conditions: HLM, paclitaxel substrate, 10 μM, 10 min at 37° C.
# Experimental: as §1
# hERG channel = hERG channel (Homo sapiens (Human), UniProt Q12809); experiment: Inhibition of the hERG channel, automated whole-cell patch clamp; format: cell-based; conditions: hERG CHO-K1 cell line; 0.1 μM, 1 μM, 10 μM; 5 min at room temperature
# Experimental: Inhibition of the hERG Channel. The experiments were performed by Eurofins Panlabs (Redmond, Wash. 98052, USA). hERG CHO-K1 cell line was used. The test concentrations were 0.1 μM, 1 μM, and 10 μM. The incubation time was 5 min at room temperature, cumulatively. The detection method used an automated whole-cell patch clamp. The experiments were duplicated, and the % inhibition of the tail current was averaged (FIG. 9).
# CYP2B6 = CYP2B6 (Homo sapiens (Human), UniProt P20813); experiment: Inhibition of microsomal cytochromes P450: CYP2B6; format: in vitro ADME; conditions: HLM, bupropion substrate, 10 μM, 10 min at 37° C.
# Experimental: as §1
# CYP1A = experiment: Inhibition of microsomal cytochromes P450: CYP1A; format: in vitro ADME, human; conditions: HLM, phenacetin substrate, 10 μM, 10 min at 37° C.
# Experimental: as §1
# CYP3A = experiment: Inhibition of microsomal cytochromes P450: CYP3A; format: in vitro ADME, human; conditions: HLM, midazolam and testosterone substrates, 10 μM, 10 min at 37° C.
# Experimental: as §1
# Sequence of CYP2C19 (P33261 whole entry): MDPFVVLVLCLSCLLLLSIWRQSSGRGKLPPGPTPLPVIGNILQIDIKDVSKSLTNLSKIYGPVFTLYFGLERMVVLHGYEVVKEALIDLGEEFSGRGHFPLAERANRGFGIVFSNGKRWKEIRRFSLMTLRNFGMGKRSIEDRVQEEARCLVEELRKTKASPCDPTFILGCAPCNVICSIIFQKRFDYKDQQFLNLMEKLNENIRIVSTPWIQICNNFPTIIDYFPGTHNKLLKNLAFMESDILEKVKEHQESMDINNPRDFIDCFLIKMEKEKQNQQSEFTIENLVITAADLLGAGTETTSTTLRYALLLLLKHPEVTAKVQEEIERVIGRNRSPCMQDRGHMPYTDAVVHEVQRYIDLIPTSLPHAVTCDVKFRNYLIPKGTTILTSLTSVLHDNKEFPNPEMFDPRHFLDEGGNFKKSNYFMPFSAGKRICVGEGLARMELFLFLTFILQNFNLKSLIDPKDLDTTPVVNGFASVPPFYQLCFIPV
# Sequence of CYP2D6 (P10635 whole entry): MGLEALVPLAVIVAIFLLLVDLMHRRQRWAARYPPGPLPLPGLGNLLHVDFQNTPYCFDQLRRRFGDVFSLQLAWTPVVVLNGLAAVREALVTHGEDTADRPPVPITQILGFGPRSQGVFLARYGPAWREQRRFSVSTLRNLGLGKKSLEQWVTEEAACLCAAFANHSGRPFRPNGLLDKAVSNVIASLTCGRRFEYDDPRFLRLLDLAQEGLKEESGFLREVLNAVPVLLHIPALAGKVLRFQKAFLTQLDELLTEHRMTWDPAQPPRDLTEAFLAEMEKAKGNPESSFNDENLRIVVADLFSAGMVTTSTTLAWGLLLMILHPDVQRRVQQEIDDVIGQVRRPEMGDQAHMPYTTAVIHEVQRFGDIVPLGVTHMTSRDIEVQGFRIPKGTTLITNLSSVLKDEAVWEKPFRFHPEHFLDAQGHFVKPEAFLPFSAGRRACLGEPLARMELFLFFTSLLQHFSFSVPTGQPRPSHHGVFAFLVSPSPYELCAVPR
# Sequence of CYP2C9 (P11712 whole entry): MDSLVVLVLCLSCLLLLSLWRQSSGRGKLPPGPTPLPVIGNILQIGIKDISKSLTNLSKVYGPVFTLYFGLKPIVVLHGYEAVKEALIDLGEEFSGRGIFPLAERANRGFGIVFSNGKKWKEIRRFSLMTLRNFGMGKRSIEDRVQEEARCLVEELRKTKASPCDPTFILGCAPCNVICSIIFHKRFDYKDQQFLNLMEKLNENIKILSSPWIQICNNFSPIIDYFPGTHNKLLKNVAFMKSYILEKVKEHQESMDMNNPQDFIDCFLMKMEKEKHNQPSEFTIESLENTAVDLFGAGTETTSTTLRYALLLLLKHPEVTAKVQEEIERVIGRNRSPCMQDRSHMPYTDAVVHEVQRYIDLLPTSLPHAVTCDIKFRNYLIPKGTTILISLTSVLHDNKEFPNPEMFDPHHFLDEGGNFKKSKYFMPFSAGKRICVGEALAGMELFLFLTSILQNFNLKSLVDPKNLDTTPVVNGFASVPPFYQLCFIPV
# Sequence of hERG channel (Q12809 whole entry): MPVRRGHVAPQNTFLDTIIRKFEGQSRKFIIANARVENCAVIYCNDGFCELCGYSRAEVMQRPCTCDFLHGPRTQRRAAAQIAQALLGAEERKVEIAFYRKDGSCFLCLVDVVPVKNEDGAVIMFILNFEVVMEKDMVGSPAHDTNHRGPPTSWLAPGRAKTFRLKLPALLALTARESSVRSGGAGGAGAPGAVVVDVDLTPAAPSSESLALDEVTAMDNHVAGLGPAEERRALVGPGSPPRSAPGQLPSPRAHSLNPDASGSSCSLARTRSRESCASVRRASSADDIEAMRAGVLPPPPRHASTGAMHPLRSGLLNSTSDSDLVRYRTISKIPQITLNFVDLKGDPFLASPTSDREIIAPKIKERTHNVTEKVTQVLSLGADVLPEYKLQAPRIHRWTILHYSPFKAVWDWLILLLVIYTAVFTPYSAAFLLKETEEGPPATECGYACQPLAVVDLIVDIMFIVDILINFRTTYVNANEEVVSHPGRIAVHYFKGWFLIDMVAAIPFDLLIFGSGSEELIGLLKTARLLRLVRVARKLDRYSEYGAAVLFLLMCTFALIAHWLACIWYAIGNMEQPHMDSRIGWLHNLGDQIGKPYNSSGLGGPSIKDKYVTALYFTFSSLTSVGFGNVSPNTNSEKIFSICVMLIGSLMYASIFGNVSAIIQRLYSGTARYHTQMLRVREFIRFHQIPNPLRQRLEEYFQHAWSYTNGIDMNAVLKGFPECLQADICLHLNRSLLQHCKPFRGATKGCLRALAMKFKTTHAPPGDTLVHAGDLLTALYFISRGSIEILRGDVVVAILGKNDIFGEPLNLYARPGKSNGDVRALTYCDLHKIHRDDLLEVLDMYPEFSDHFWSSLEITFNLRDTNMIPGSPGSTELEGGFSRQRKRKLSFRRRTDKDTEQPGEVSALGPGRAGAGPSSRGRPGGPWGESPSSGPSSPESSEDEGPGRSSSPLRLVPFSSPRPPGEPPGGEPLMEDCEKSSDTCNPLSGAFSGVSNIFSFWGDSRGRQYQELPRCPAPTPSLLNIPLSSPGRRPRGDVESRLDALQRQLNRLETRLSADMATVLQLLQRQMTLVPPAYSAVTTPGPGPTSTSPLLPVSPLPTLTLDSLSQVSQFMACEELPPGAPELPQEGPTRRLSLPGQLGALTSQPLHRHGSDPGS
# Sequence of CYP2C8 (P10632 whole entry): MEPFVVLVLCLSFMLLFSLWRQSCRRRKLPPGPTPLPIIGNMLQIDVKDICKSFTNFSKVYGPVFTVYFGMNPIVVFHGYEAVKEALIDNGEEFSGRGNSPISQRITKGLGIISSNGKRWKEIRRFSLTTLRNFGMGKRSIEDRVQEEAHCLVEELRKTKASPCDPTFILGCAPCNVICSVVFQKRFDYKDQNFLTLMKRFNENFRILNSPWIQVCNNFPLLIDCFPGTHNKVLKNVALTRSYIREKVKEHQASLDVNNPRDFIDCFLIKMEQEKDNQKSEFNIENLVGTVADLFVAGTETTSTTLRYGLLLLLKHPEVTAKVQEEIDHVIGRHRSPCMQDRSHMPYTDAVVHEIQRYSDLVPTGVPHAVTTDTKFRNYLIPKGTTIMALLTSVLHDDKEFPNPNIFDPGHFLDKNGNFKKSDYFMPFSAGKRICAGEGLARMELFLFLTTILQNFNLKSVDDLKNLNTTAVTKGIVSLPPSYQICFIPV
# Sequence of GABA aminotransferase (GABA-AT) (P80147 29-500): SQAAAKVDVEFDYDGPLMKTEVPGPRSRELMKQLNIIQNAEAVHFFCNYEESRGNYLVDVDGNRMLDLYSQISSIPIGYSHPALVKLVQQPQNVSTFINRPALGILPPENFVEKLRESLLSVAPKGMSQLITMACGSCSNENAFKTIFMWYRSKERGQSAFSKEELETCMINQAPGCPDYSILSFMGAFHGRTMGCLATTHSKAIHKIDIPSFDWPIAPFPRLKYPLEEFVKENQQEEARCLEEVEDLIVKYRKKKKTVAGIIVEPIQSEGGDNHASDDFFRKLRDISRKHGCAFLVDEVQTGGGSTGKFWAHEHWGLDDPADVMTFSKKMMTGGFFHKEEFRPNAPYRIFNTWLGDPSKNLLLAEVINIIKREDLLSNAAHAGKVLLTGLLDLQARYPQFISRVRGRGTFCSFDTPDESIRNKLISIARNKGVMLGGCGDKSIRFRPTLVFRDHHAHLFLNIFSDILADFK
# Sequence of CYP2B6 (P20813 whole entry): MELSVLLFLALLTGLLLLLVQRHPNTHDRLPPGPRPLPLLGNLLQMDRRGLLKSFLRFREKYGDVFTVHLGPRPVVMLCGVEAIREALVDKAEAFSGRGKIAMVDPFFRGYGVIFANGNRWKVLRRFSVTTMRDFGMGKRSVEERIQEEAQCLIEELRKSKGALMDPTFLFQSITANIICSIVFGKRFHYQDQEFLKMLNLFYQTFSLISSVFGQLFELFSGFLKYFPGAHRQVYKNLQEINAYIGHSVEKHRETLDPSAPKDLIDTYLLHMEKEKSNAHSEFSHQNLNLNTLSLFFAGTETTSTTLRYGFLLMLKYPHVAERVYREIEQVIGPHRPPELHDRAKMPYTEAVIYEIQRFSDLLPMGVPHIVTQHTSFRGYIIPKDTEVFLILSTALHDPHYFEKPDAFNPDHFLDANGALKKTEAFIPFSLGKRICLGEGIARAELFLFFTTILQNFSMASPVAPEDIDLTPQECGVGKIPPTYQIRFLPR
compound,measurement,setting,value
"N[C@H]1C=C(C(=O)O)SC1 [(S)-4-Amino-4,5-dihydro-2-thiophenecarboxylic acid]",inactivation or inhibition of aspartate aminotransferase,[1],inactivator of aspartate aminotransferase
same,"inactivation of GABA-AT (in words, prior art)",GABA-AT,known inactivator of GABA-AT
"(2S,4S)-4-aminotetrahydrofuran-2-carboxylic acid (40) and (2R,4R)-4-aminotetrahydrofuran-2-carboxylic acid (51) [mixture of enantiomers 40 and 51]",pKi,[2],3.37
C=CC(N)CCC(=O)O (stereo not shown) [vigabatrin],time spasms suppression stayed effective,[3],1 days
"Cl.N[C@@H]1CS[C@H](C(=O)O)C1 [Compound 17, (2S,4S)-4-Aminotetrahydrothiophene-2-carboxylic acid hydrochloride]",CYP2C9 inhibition,CYP2C9,did not inhibit or induce
same,CYP2D6 inhibition,CYP2D6,did not inhibit or induce
same,metabolized in HLM,[4],less than 20%
same,CYP2C19 inhibition,CYP2C19,did not inhibit or induce
same,CYP2C8 inhibition,CYP2C8,did not inhibit or induce
same,inhibition of the hERG channel (tail current),hERG channel,did not inhibit
same,CYP2B6 inhibition,CYP2B6,did not inhibit or induce
same,CYP1A inhibition,CYP1A,did not inhibit or induce
same,CYP3A inhibition,CYP3A,did not inhibit or induce
